ChEMBL document CHEMBL4507315 (2021)

Assays:
[1] = tested on: Tyrosine-protein kinase ABL1 (Homo sapiens), P00519 [T315I]; conditions: Compound concentration 100.0 nM
[2] = tested on: Tyrosine-protein kinase ABL1 (Homo sapiens), P00519 [Y253F]; conditions: Compound concentration 100.0 nM
[3] = tested on: ALK tyrosine kinase receptor (Homo sapiens), Q9UM73 [C1156Y]; conditions: Compound concentration 100.0 nM
[4] = biological target: Aurora kinase A (Homo sapiens) (UniProt O14965); conditions: Compound concentration 100.0 nM
[5] = biological target: Bone morphogenetic protein receptor type-1A (Homo sapiens) (UniProt P36894); conditions: Compound concentration 100.0 nM
[6] = biological target: Protein-tyrosine kinase 6 (Homo sapiens) (UniProt Q13882); conditions: Compound concentration 100.0 nM
[7] = biological target: Mitotic checkpoint serine/threonine-protein kinase BUB1 (Homo sapiens) (UniProt O43683); conditions: Compound concentration 100.0 nM
[8] = biological target: Casein kinase I isoform alpha-like (Homo sapiens) (UniProt Q8N752); conditions: Compound concentration 100.0 nM
Casein kinase I isoform alpha-like (Homo sapiens), sequence (Q8N752 whole entry, canonical isoform): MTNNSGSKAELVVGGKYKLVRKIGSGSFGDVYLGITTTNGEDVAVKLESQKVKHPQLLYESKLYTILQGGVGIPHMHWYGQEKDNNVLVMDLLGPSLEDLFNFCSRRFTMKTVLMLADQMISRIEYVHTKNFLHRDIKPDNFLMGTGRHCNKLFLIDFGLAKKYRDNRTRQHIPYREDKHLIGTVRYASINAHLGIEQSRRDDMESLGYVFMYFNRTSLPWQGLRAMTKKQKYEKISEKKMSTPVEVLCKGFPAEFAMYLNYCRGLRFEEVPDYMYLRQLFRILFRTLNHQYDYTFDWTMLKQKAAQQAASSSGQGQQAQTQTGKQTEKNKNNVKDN

[9] = biological target: Casein kinase I isoform epsilon (Homo sapiens) (UniProt P49674); conditions: Compound concentration 100.0 nM
[10] = biological target: Serine/threonine-protein kinase DCLK1 (Homo sapiens) (UniProt O15075); conditions: Compound concentration 100.0 nM
[11] = biological target: Dual specificity tyrosine-phosphorylation-regulated kinase 2 (Homo sapiens) (UniProt Q92630); conditions: Compound concentration 100.0 nM
Dual specificity tyrosine-phosphorylation-regulated kinase 2 (Homo sapiens), sequence (Q92630 whole entry): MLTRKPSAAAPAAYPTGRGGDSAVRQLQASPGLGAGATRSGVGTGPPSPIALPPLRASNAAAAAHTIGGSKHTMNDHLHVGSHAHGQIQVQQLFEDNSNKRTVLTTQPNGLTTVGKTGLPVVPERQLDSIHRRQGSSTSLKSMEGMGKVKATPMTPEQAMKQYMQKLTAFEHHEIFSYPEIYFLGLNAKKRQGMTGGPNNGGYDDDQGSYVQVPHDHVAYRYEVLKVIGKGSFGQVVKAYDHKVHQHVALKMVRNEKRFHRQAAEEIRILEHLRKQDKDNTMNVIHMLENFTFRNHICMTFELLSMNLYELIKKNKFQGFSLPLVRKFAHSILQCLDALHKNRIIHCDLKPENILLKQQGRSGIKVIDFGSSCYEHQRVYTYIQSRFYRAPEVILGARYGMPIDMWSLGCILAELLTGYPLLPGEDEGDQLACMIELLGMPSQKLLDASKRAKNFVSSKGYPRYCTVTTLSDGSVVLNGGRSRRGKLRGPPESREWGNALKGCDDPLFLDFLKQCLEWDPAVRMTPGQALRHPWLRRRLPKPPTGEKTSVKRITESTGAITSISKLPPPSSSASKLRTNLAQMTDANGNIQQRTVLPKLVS

[12] = biological target: Epidermal growth factor receptor (Homo sapiens) (UniProt P00533); conditions: Compound concentration 100.0 nM
[13] = biological target: Ephrin type-B receptor 4 (Homo sapiens) (UniProt P54760); conditions: Compound concentration 100.0 nM
[14] = biological target: Mitogen-activated protein kinase 4 (Homo sapiens) (UniProt P31152); conditions: Compound concentration 100.0 nM
[15] = biological target: Serine/threonine-protein kinase/endoribonuclease IRE1 (Homo sapiens) (UniProt O75460); conditions: Compound concentration 100.0 nM
Serine/threonine-protein kinase/endoribonuclease IRE1 (Homo sapiens), sequence (O75460 19-977 limits assumed): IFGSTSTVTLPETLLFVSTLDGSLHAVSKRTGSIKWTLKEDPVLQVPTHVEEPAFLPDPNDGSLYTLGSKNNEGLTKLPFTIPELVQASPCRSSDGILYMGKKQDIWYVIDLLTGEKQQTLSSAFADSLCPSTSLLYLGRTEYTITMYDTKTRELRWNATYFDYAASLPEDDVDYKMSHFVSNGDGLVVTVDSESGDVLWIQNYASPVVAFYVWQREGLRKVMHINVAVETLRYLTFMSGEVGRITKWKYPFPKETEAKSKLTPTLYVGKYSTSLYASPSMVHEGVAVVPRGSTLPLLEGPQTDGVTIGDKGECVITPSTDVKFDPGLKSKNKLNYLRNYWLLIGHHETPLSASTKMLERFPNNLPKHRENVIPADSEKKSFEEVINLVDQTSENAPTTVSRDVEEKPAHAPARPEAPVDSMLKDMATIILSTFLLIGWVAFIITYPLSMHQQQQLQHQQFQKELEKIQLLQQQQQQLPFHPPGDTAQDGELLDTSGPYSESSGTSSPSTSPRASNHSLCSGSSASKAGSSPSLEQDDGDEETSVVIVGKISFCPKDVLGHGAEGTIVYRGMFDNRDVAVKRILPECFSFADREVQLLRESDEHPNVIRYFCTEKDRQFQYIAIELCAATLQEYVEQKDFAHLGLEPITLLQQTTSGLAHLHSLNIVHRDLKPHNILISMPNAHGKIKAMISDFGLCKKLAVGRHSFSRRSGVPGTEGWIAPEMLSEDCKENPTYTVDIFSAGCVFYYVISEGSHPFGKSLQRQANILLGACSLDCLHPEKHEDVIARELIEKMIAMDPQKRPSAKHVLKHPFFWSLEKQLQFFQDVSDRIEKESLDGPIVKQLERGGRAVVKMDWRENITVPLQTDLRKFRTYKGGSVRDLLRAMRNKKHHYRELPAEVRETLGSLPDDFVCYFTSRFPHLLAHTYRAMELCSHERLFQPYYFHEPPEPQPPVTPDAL

[16] = biological target: Focal adhesion kinase 1 (Homo sapiens) (UniProt Q05397); conditions: Compound concentration 100.0 nM
[17] = biological target: Fibroblast growth factor receptor 3 (Homo sapiens) (UniProt P22607); conditions: Compound concentration 100.0 nM
[18] = biological target: Vascular endothelial growth factor receptor 1 (Homo sapiens) (UniProt P17948); conditions: Compound concentration 100.0 nM
[19] = tested on: eIF-2-alpha kinase GCN2 (Homo sapiens), Q9P2K8 [S808G]; conditions: Compound concentration 100.0 nM
eIF-2-alpha kinase GCN2 (Homo sapiens), Q9P2K8 [S808G], sequence (Q9P2K8 whole entry S808G): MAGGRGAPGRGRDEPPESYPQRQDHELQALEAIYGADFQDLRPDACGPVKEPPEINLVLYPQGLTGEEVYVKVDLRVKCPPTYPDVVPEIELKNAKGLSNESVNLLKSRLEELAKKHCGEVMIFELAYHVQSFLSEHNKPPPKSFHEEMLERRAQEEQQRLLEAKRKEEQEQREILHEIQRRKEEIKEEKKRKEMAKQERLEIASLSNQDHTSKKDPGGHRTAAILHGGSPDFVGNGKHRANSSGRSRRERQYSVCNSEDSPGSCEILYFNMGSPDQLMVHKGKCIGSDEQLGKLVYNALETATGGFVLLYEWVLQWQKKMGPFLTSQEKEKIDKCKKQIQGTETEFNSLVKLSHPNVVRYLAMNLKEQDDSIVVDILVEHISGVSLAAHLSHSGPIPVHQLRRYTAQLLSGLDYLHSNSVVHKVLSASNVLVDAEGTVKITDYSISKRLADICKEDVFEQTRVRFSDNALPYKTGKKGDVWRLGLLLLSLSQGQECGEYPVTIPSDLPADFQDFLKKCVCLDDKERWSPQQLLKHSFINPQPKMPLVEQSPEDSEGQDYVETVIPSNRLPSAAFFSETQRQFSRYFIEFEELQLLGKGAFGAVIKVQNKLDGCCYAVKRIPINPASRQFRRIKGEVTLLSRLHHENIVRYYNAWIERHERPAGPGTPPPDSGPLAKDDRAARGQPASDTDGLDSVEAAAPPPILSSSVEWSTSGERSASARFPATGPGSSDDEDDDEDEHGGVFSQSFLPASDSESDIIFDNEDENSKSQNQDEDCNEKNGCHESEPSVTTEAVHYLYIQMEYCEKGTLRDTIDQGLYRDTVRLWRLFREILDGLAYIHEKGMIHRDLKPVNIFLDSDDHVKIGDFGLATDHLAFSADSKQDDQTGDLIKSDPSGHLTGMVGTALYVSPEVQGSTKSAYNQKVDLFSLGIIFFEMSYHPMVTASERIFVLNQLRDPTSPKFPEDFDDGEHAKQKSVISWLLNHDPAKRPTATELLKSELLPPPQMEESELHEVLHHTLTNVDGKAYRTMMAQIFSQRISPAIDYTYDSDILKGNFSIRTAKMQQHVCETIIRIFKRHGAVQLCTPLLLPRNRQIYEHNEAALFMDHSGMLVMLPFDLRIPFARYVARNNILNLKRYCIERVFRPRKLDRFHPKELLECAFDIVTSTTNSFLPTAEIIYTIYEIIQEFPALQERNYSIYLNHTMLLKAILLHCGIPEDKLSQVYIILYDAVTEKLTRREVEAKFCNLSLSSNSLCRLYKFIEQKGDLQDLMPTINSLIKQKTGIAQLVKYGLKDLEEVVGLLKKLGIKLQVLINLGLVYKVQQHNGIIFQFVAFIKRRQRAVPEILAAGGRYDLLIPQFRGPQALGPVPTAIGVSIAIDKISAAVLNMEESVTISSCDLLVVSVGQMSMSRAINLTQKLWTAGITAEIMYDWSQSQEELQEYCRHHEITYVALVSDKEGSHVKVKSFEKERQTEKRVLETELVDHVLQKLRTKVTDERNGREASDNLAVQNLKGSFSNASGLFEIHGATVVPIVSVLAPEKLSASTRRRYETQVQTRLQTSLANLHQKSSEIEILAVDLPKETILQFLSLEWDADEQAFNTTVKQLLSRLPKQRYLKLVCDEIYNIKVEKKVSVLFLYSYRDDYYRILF

[20] = biological target: Glycogen synthase kinase-3 beta (Homo sapiens) (UniProt P49841); conditions: Compound concentration 100.0 nM
[21] = biological target: Mast/stem cell growth factor receptor Kit (Homo sapiens) (UniProt P10721); conditions: Compound concentration 100.0 nM
[22] = biological target: Serine/threonine-protein kinase LATS1 (Homo sapiens) (UniProt O95835); conditions: Compound concentration 100.0 nM
[23] = biological target: Mitogen-activated protein kinase kinase kinase 2 (Homo sapiens) (UniProt Q9Y2U5); conditions: Compound concentration 100.0 nM
[24] = biological target: Mitogen-activated protein kinase kinase kinase kinase 3 (Homo sapiens) (UniProt Q8IVH8); conditions: Compound concentration 100.0 nM
Mitogen-activated protein kinase kinase kinase kinase 3 (Homo sapiens), sequence (Q8IVH8 whole entry): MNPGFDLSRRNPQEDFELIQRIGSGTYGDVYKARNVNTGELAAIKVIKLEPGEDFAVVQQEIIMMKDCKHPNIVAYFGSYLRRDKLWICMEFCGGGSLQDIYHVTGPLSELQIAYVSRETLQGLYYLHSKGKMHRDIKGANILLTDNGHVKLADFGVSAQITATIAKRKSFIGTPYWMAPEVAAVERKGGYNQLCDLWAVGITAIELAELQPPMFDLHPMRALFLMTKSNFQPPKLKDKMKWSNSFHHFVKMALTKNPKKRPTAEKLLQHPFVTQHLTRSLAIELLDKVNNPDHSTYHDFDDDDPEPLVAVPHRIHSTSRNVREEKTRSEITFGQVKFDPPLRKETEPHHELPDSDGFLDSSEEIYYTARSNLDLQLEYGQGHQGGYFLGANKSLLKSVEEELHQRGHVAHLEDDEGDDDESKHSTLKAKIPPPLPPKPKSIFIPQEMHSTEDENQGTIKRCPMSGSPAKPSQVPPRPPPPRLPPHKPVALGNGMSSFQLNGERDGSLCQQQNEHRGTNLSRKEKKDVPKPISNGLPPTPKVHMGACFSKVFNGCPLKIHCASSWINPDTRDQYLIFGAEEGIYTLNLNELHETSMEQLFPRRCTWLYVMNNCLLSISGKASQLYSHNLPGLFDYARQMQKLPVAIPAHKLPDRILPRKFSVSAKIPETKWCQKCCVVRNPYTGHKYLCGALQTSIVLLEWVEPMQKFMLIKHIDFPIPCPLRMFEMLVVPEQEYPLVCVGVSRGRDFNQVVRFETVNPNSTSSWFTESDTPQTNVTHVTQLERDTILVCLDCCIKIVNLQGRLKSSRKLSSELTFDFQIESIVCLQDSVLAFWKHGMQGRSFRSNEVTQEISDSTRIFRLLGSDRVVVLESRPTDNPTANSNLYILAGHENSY

[25] = biological target: Serine/threonine-protein kinase MARK1 (Homo sapiens) (UniProt Q9P0L2); conditions: Compound concentration 100.0 nM
[26] = biological target: Serine/threonine-protein kinase Nek1 (Homo sapiens) (UniProt Q96PY6); conditions: Compound concentration 100.0 nM
[27] = biological target: Serine/threonine-protein kinase Nek11 (Homo sapiens) (UniProt Q8NG66); conditions: Compound concentration 100.0 nM
[28] = biological target: Serine/threonine-protein kinase Nek4 (Homo sapiens) (UniProt P51957); conditions: Compound concentration 100.0 nM
[29] = biological target: Serine/threonine-protein kinase PAK 3 (Homo sapiens) (UniProt O75914); conditions: Compound concentration 100.0 nM
[30] = biological target: Phosphorylase b kinase gamma catalytic chain, skeletal muscle/heart isoform (Homo sapiens) (UniProt Q16816); conditions: Compound concentration 100.0 nM
[31] = tested on: Phosphatidylinositol 4,5-bisphosphate 3-kinase catalytic subunit alpha isoform (Homo sapiens), P42336 [M1043I]; conditions: Compound concentration 100.0 nM
[32] = biological target: Phosphatidylinositol 4-phosphate 5-kinase type-1 gamma (Homo sapiens) (UniProt O60331); conditions: Compound concentration 100.0 nM
[33] = biological target: Receptor-interacting serine/threonine-protein kinase 2 (Homo sapiens) (UniProt O43353); conditions: Compound concentration 100.0 nM
[34] = biological target: Ribosomal protein S6 kinase alpha-1 (Homo sapiens) (UniProt Q15418); conditions: Compound concentration 100.0 nM
[35] = biological target: Ribosomal protein S6 kinase alpha-3 (Homo sapiens) (UniProt P51812); conditions: Compound concentration 100.0 nM
[36] = biological target: Serine/threonine-protein kinase SIK2 (Homo sapiens) (UniProt Q9H0K1); conditions: Compound concentration 100.0 nM
[37] = biological target: SNF-related serine/threonine-protein kinase (Homo sapiens) (UniProt Q9NRH2); conditions: Compound concentration 100.0 nM
[38] = biological target: Dual specificity testis-specific protein kinase 1 (Homo sapiens) (UniProt Q15569); conditions: Compound concentration 100.0 nM
[39] = biological target: Angiopoietin-1 receptor (Homo sapiens) (UniProt Q02763); conditions: Compound concentration 100.0 nM
[40] = biological target: Serine/threonine-protein kinase tousled-like 1 (Homo sapiens) (UniProt Q9UKI8); conditions: Compound concentration 100.0 nM
[41] = biological target: Serine/threonine-protein kinase ULK1 (Homo sapiens) (UniProt O75385); conditions: Compound concentration 100.0 nM
[42] = biological target: Serine/threonine-protein kinase 25 (Homo sapiens) (UniProt O00506); conditions: Compound concentration 100.0 nM
Serine/threonine-protein kinase 25 (Homo sapiens), sequence (O00506 whole entry, looked up): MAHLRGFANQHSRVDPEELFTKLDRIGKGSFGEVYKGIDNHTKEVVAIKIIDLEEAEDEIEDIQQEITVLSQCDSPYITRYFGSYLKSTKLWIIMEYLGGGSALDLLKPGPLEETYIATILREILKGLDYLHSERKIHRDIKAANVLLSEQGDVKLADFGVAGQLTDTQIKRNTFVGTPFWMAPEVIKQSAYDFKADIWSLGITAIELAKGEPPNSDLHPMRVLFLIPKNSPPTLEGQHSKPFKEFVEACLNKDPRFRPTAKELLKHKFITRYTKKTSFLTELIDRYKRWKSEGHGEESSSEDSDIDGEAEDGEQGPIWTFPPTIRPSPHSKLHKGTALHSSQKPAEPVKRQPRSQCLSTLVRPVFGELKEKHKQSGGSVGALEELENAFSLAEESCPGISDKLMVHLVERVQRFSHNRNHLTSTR

[43] = biological target: Sodium-dependent serotonin transporter (Homo sapiens) (UniProt P31645); conditions: Compound concentration 10.0 uM
[44] = biological target: Beta-1 adrenergic receptor (Homo sapiens) (UniProt P08588); conditions: Compound concentration 10.0 uM
[45] = biological target: Sigma intracellular receptor 2 (Homo sapiens, UniProt Q5BJF2); conditions: Compound concentration 10.0 uM
Sigma intracellular receptor 2, sequence (Q5BJF2 whole entry): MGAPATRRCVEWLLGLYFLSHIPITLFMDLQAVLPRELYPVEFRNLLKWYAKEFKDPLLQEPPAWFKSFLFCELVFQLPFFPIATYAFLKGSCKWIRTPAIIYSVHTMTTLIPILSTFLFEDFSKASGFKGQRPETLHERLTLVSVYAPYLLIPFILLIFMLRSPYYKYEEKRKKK

Structure (SMILES): Nc1c(C(=O)NCc2ccc(C(=O)NCCCC3CCCCC3)cc2)cnn1-c1ccccc1 [SR-318]
- residual activity [1]: 100%
- residual activity [2]: 100%
- residual activity [3]: 100%
- residual activity [4]: 100%
- residual activity [5]: 100%
- residual activity [6]: 96%
- residual activity [7]: 86%
- residual activity [8]: 98%
- residual activity [9]: 98%
- residual activity [10]: 100%
- residual activity [11]: 97%
- residual activity [12]: 99%
- residual activity [13]: 100%
- residual activity [14]: 100%
- residual activity [15]: 100%
- residual activity [16]: 99%
- residual activity [17]: 100%
- residual activity [18]: 100%
- residual activity [19]: 100%
- residual activity [20]: 100%
- residual activity [21]: 70%
- residual activity [22]: 100%
- residual activity [23]: 100%
- residual activity [24]: 100%
- residual activity [25]: 79%
- residual activity [26]: 84%
- residual activity [27]: 94%
- residual activity [28]: 100%
- residual activity [29]: 100%
- residual activity [30]: 90%
- residual activity [31]: 100%
- residual activity [32]: 93%
- residual activity [33]: 96%
- residual activity [34]: 92%
- residual activity [35]: 100%
- residual activity [36]: 100%
- residual activity [37]: 91%
- residual activity [38]: 100%
- residual activity [39]: 100%
- residual activity [40]: 77%
- residual activity [41]: 100%
- residual activity [42]: 82%
- inhibition [43]: 7.75%
- inhibition [44]: 25.3%
- inhibition [45]: 45.3%

Structure (SMILES): O=C(NCCCC1CCCCC1)c1ccc(CNC(=O)c2cnn(-c3ccccc3)c2C(F)(F)F)cc1 [SR-321]
- residual activity [1]: 80%
- residual activity [2]: 98%
- residual activity [3]: 100%
- residual activity [4]: 100%
- residual activity [5]: 100%
- residual activity [6]: 97%
- residual activity [7]: 100%
- residual activity [8]: 94%
- residual activity [9]: 100%
- residual activity [10]: 100%
- residual activity [11]: 100%
- residual activity [12]: 100%
- residual activity [13]: 95%
- residual activity [14]: 100%
- residual activity [15]: 94%
- residual activity [16]: 100%
- residual activity [17]: 100%
- residual activity [18]: 100%
- residual activity [19]: 100%
- residual activity [20]: 100%
- residual activity [21]: 100%
- residual activity [22]: 100%
- residual activity [23]: 100%
- residual activity [24]: 78%
- residual activity [25]: 100%
- residual activity [26]: 58%
- residual activity [27]: 100%
- residual activity [28]: 100%
- residual activity [29]: 100%
- residual activity [30]: 100%
- residual activity [31]: 68%
- residual activity [32]: 90%
- residual activity [33]: 97%
- residual activity [34]: 100%
- residual activity [35]: 100%
- residual activity [36]: 100%
- residual activity [37]: 100%
- residual activity [38]: 100%
- residual activity [39]: 100%
- residual activity [40]: 100%
- residual activity [41]: 100%
- residual activity [42]: 81%
- inhibition [43]: 0.18%
- inhibition [44]: 21.9%
- inhibition [45]: 54.8%
